The results in this text go back to PMC3392449 (Journal of Immunology (Baltimore, Md. : 1950), 2012).

Holding throughout (type): cell-based, human
Experiment [1] deals with extract-stimulated PBMC cultures from allergic donors. Put plainly: IL-5 plus IFN-γ ELISPOT of Bla g extract-expanded PBMC. To be noted: share of the region in the total Bla g peptide response (total SFC).
Experiment [2] deals with extract-stimulated PBMC cultures from allergic donors (IFN-γ production). Put plainly: IFN-γ ELISPOT of in vitro expanded PBMC. To be noted: donor U00023 (Figure 3), result in words.
Experiment [3] concerns extract-stimulated PBMC cultures from allergic donors (IL-5 production). Put plainly: IL-5 ELISPOT of in vitro expanded PBMC. To be noted: donor U00023 (Figure 3), result in words.

On to FAVATITHAAELQRV [Region 5], for which, in experiment [1], the “% Total response” value is on record as 3.5%. In experiment [2], the IFN-γ response entry was “produced IFN-γ”. Also, in experiment [3], the IL-5 response entry is on record as “no IL-5”.

As for PEQIQLLKKAFDAFD [Region 23], in experiment [1], the “% Total response” value is listed as 5.1%. Moreover, in experiment [3], the IL-5 response result was “associated only with IL-5 production”.

As for ISDFRAAIANYHYDA [Region 13], in experiment [1], the “% Total response” value turned out to be 8.6%.

As to GNQNFLTVFDSTSCN [Region 7], the “% Total response” value in experiment [1] turned out to be 0.2%. Moreover, in experiment [2], the IFN-γ response entry is given as “produced IFN-γ”. Besides, in experiment [3], the IL-5 response entry was “no IL-5”.
